Source: paper PMC10663510 (Scientific Reports, 2023)

T1: MSMEG-3765 (TetR-like repressor) (Mycolicibacterium (Mycobacterium) smegmatis mc2 155?), ORF:4079dac7
T1 sequence: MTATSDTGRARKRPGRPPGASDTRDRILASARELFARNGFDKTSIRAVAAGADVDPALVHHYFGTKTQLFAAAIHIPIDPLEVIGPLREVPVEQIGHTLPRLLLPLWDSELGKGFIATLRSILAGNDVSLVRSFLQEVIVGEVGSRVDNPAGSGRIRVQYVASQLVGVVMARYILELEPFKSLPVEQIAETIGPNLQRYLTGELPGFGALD


How the values were obtained:
[1] = target: T2, MSMEG-3765 (TetR-like repressor) (Mycolicibacterium smegmatis, UniProt A0QYS0); assay: EMSA, release of […] bp operator DNA; assay type: binding; settings: 0.2 pmol DNA, 4 pmol protein, 400 or 4000 pmol drug in 20 ul; 20 mM HEPES pH 8.0, 75 mM NaCl, 10 mM MgCl2, 30 °C
T2 construct: gene MSMEG_3765; homodimer; 211 residues per chain in model

[2] = system: T1, MSMEG-3765 (TetR-like repressor) (Mycolicibacterium (Mycobacterium) smegmatis mc2 155?), ORF:4079dac7; assay: EMSA; settings: 20 mM HEPES pH 8.0, 75 mM NaCl, 10 mM MgCl2, 5% glycerol; 20 ul, 30 C 10 min; native 8% PAGE at 4 C
[3] = target: the molecule itself; assay: circular dichroism (spectrum and thermal unfolding) compared with data back-calculated from monomer and dimer models; MSMEG-3765 in 20 mM Tris HCl, 500 mM NaCl, pH 8; CD spectra 200-260 nm at 5-85 °C; melting temperature and spectrum compared with predictions (SCooP, PDBMD2CD) from predicted monomeric and dimeric structures

Molecule | EMSA, release of 133 bp operator DNA [1] | also measured
O=C(O)c1cn(C2CC2)c2cc(N3CCNCC3)c(F)cc2c1=O [ciprofloxacin] | rifampicin or ciprofloxacin are able to directly interfear with the binding of the MSMEG-3765 TetR | 
CTGCTGGAGTCCGCCGCCTGAGCCAGGCGTCGCCGACGCCGAAATGTGTCGACGCATCGTCTTCCCACCGGACGACGGCAGGCCTAGAATTCATTGCATGATGACTTCATCGCGCGATGAATTGTCAGCGACGGGGCCCG (double strand) [133 bp MSMEG_3762 upstream operator fragment] |  | binding [2]: binds
CO[C@H]1/C=C/O[C@@]2(C)Oc3c(C)c(O)c4c(O)c(c(/C=N/N5CCN(C)CC5)c(O)c4c3C2=O)NC(=O)/C(C)=C\C=C\[C@H](C)[C@H](O)[C@@H](C)[C@@H](O)[C@@H](C)[C@H](OC(C)=O)[C@@H]1C [rifampicin] | rifampicin or ciprofloxacin are able to directly interfear with the binding of the MSMEG-3765 TetR | 
TetR-like MSMEG-3765 repressor (natural protein, also called MSMEG-3765 TetR recombinant protein; TetR-like MSMEG-3765 protein) MTATSDTGRARKRPGRPPGASDTRDRILASARELFARNGFDKTSIRAVAAGADVDPALVHHYFGTKTQLFAAAIHIPIDPLEVIGPLREVPVEQIGHTLPRLLLPLWDSELGKGFIATLRSILAGNDVSLVRSFLQEVIVGEVGSRVDNPAGSGRIRVQYVASQLVGVVMARYILELEPFKSLPVEQIAETIGPNLQRYLTGELPGFGALD |  | binding result [3]: binds
